Measurements: patent US12453776B2, “Lipids and compositions for the delivery of therapeutics” (ARBUTUS BIOPHARMA CORPORATION, priority 2008, dated 2025)

System: Factor VII
Assay: In vivo FVII knockdown by FVII siRNA lipid formulations (chromogenic Factor VII assay, serum 24 h after i.v. dosing)
Conditions: female C57Bl/6 mice, i.v. tail vein, cationic lipid/DSPC/cholesterol/PEG-lipid 40/10/40/10 with FVII siRNA, no unit at the values, method gives ED50 in mg/kg
Method: Cationic lipid containing particles were made using the preformed vesicle method. Cationic lipid, DSPC, cholesterol and PEG-lipid were solubilised in ethanol at a molar ratio of 40/10/40/10, respectively. The lipid mixture was added to an aqueous buffer (50 mM citrate, pH 4) with mixing to a final ethanol and lipid concentration of 30% (vol/vol) and 6.1 mg/mL respectively and allowed to equilibrate at room temperature for 2 min before extrusion. The hydrated lipids were extruded through two stacked 80 nm pore-sized filters (Nuclepore) at 22° C. using a Lipex Extruder (Northern Lipids, Vancouver, BC) until a vesicle diameter of 70-90 nm, as determined by Nicomp analysis, was obtained. This generally required 1-3 passes.
The FVII siRNA (solubilised in a 50 mM citrate, pH 4 aqueous solution containing 30% ethanol) was added to the vesicles, pre-equilibrated to 35° C., at a rate of ˜5 mL/min with mixing. […] The final encapsulated siRNA-to-lipid ratio was determined after removal of unencapsulated siRNA using size-exclusion spin columns or ion exchange spin columns.
Test formulations were initially assessed for their FVII knockdown in female 7-9 week old, 15-25 g, female C57Bl/6 mice at 0.1, 0.3, 1.0 and 5.0 mg/kg with 3 mice per treatment group. […] Mice were weighed and the appropriate dosing volumes calculated (10 μl/g body weight). […]

SMILES: CCCCC/C=C\C/C=C\CCCCCCCCC(CCCCCCCC/C=C\C/C=C\CCCCC)OC(=O)CCCN(CC)CC [DLin-M-C3-DEA]
- ED50 (dose resulting in a 50% reduction in plasma FVII levels compared to control animals): 0.3 mg/kg

SMILES: CCCCC/C=C\C/C=C\CCCCCCCCC(CCCCCCCC/C=C\C/C=C\CCCCC)OC(=O)CCCN(C(C)C)C(C)C [DLin-M-C3-DIPA]
- ED50 (dose resulting in a 50% reduction in plasma FVII levels compared to control animals): 4.5 mg/kg
